These results are taken from ChEMBL document CHEMBL1201862, “PubChem BioAssay data set” (2004).

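Briefly, cells in 96-well plates were exposed to five compound concentrations for 48 h, and endpoints were estimated by linear interpolation. GI50 = concentration required for 50% inhibition of growth.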 Activity calls are given as the source filed them. Rule as the data show it: active = GI50 up to about 1.1 µM and inactive = higher. Where a SMILES comes first, the peptide text is derived from it. The star is where a group is joined. OSu = O=C1CCC(=O)N1O*; OBn = c1ccc(CO*)cc1; Bn = c1ccc(C*)cc1

What all share (assay): NCI tumour cell line growth inhibition, 48 h
For experiment [1], the system named is HOP-18.
In experiment [2] the test system is M19-MEL.
For experiment [3], the system named is XF498.
Experiment [4] deals with MDA-MB-231.
In experiment [5] the test system is MDA-N.
Experiment [6] concerns T47D.
The subject of experiment [7] is Hs-578T.
The subject of experiment [8] is RXF 631.
Experiment [9] relates to LXFL 529.

Regarding `CSCSCC(CO)NC(=O)/C=C\c1c(C)[nH]c(=O)[nH]c1=O` (stereo not drawn), the GI50 was 46.1 µM (inactive) in experiment [1], 9.75 µM (inactive) in [2] and 1.61 µM (inactive) in [3].

For `COC(=O)[C@@H](O)[C@](O)(CCC(C)C)C(=O)O[C@@H]1C(OC)=C[C@]23CCCN2CCc2cc4c(cc2[C@H]13)OCO4`, the GI50 was 2.46 µM (inactive) in experiment [1] and 1.18 µM (inactive) in [2].

In the case of `NC(=O)C(=O)N/N=C1/c2ccccc2CC1C1(O)C(=O)Nc2c(Cl)cc(Cl)cc21` (stereo not drawn), the GI50 in experiment [1], in experiment [2] and in [3] was > 100 µM (inactive) each time.

With `N/C(=N\O)N/N=C\c1ccccc1O`, the results for the GI50 in [1], in experiment [2] and in experiment [3] were 27.2 µM (inactive), 16.6 µM (inactive) and 1.04 µM (active), respectively.

In the case of `Oc1ccc(Cl)cc1C1=Nn2c(COc3ccc4c(c3)CCCC4)nnc2SC1`, the GI50 in experiment [4] was 14.8 µM (inactive); in experiment [5] it was 14.6 µM (inactive); in experiment [6], 11.2 µM (inactive); in experiment [7], 14.3 µM (inactive).

For `O=C(O)c1ccccc1/C=N\N(CCO)C1=NCCN1`, the GI50 in [4], in experiment [5], in experiment [6] and in experiment [7] was > 100 µM (inactive) each time.

On to `CCOC(=O)C1C(c2cc(OC)c(O)c(OC)c2)c2cc3c(cc2OC1(C)O)OCO3` (stereo not drawn), for which the GI50 is > 100 µM (inactive) in [1], 66.4 µM (inactive) in experiment [2], 75.9 µM (inactive) in experiment [8] and 31 µM (inactive) in [3].

`Cn1ncc2c(=O)[nH]c(-c3ccccc3)nc21`: the GI50 is < 0.01 µM (active) in experiment [1], > 100 µM (inactive) in experiment [8] and > 100 µM (inactive) in experiment [3].

Regarding `COc1ccc(C2C(=O)C(Cl)N2Nc2nc(C)cc(O)n2)cc1OC` (stereo not drawn), the GI50 in experiment [9] was 41.3 µM (inactive); in [1] it was 6.41 µM (inactive); in experiment [2] it was 42.3 µM (inactive).

`O=c1ccn(C2OC(CN(O)CCC3C(O)C(CO)OC3n3ccc(=O)[nH]c3=O)C(O)C2O)c(=O)[nH]1` (stereo not drawn): the GI50 in experiment [4], in experiment [5], in [6] and in experiment [7] was > 100 µM (inactive) throughout.

For the compound `CCCCCCCCC1=CCC(CN(C)C)C1=O` (stereo not drawn), the GI50 in [2] is 17.8 µM (inactive).

Turning to `[N-]=[N+]=NC1(c2ccccc2)C(=O)Nc2ccccc2C1=O` (stereo not drawn), the GI50 is 55.2 µM (inactive) in experiment [4], 21.4 µM (inactive) in [5], 95.5 µM (inactive) in experiment [6] and 22.3 µM (inactive) in experiment [7].

With `COc1ccc2c(c1)C/C(=C\c1ccc(O)c(OC)c1)C2=O`, the GI50 in [7] was > 100 µM (inactive).

With `NC1CC(=O)c2sc(I)cc21` (stereo not drawn), the GI50 in [4], in [5] and in experiment [6] was > 100 µM (inactive) throughout.

Regarding `C=C1C(=O)O[C@H]2C/C(C)=C/CC[C@@]3(C)O[C@](C)(CC[C@@H]3I)[C@@H](I)C[C@@H]12`, the GI50 was 6.75 µM (inactive) in experiment [4], 2.49 µM (inactive) in [5], 5.46 µM (inactive) in experiment [6] and 8.49 µM (inactive) in experiment [7].

As for `CCOC1CC2OC(=O)C1C=C2C(=O)OC` (stereo not drawn), the GI50 in experiment [9] is 15.5 µM (inactive); in experiment [1], 21.1 µM (inactive); in experiment [2] it was 37.2 µM (inactive); in [3] it was 23.6 µM (inactive).

Take `CN1C(CC(O)c2ccccc2)CCCC1CC(O)(c1ccccc1)c1ccccc1` (stereo not drawn): the GI50 in experiment [4] was 22.6 µM (inactive); in [5] it was 18.5 µM (inactive); in experiment [6], 21 µM (inactive).

Regarding `CCCOC(=O)CNC(=O)OC(C)(C)C`, the GI50 was > 100 µM (inactive) in [9]; 0.897 µM (active) in experiment [1]; > 100 µM (inactive) in experiment [2]; > 100 µM (inactive) in experiment [8]; > 100 µM (inactive) in experiment [3].

In the case of `O=C1OC(c2ccccc2)=N/C1=C\c1cccnc1`, the GI50 in experiment [7] was > 100 µM (inactive).

`CC(C)CC(NC(=O)C(N)CCC(=O)OCc1ccccc1)C(=O)NC(COCc1ccccc1)C(=O)NC(Cc1ccccc1)C(=O)ON1C(=O)CCC1=O` (stereo not drawn) (H-E(OBn)LS(Bn)F-OSu; configuration not given here): the values for the GI50 in [4], in experiment [5] and in experiment [7] were 18.1 µM (inactive), 21.4 µM (inactive) and 26.4 µM (inactive), respectively.

For the compound `CC(C)C1=CC2=CC[C@@H]3[C@](C)(CCC[C@@]3(C)C(=O)O)[C@H]2CC1` [ABIETIC ACID], the GI50 in experiment [9] was 64.3 µM (inactive); in [1], > 75 µM (inactive); in [2], 59 µM (inactive); in experiment [8], 62.8 µM (inactive); in experiment [3], 73.6 µM (inactive).

With `CC1=COC2=C(C)C(=O)C(=O)c3c(C)ccc1c32` [MANSONONE F], the GI50 was 3.28 µM (inactive) in [4], 1.78 µM (inactive) in experiment [5], 8.24 µM (inactive) in experiment [6] and 17.7 µM (inactive) in experiment [7].

`CC(C)=CCc1c(O)ccc2ccc(=O)oc12` [OSTHENOL]: the GI50 in experiment [1] is 43.6 µM (inactive); in experiment [2] it was 47.1 µM (inactive).
